Experiments:
[1] = test system: platelet granule marker CD62p on platelets; test: Percentage of CD62p positive platelets by flow cytometry (platelet activation state); assay type: cell-based, human; settings: dibasic versus tribasic ammonium citrate in the reagent, FIGS. 11A and 11B
Excerpt: When used to stabilize blood samples or fractions or other tissues containing platelets, the composition and methods of this invention preserve platelet activity in the state of activation substantially the same as that existing at the time of blood or platelet withdrawal from the blood or platelet donor. By “state of activation of the platelets” or “Activation Potential” as used herein is meant the percentage of platelets expressing the CD62p antigen, i.e., the percentage of platelets that bind CD62p fluorescently-labeled antibody as performed by flow cytometry, or CD62p positive platelets in the sample. The CD62p antigen represents a glycoprotein antigen that is unique to megakaryocyte, platelet, and endothelial cell secretory granules. […]
Expression of CD62p is measured typically by flow cytometric analysis using dual or multi-parameter analyses, and particularly by staining the samples with labeled ligands that bind to CD62p on the platelets in the sample. The ligands are conventionally monoclonal antibodies to the antigen to be measured. […]
The same protocol was conducted on activated blood samples. […] PAP was assessed using 2 μl of a 1/100 dilution (0.0324 mM) of stock PMA is added with 10 μl antibodies and 100 μl of diluent (PBS) and 2.5 μl of blood and incubated for 15 minutes (final concentration of 11.58 μM). […]

cells = test: Cellular stabilization (several experiments); assay type: cell-based

| Compound | stabilization of CD62p by ammonium salt type [1] | effectiveness in cellular stabilization (cells) |
| --- | --- | --- |
| N.N.O=C(O)CC(O)(CC(=O)O)C(=O)O [dibasic ammonium citrate] | better stabilization |  |
| C1N2CN3CN1CN(C2)C3 [hexamethylenetetramine] |  | not effective |

— patent US20040038424A1, “Formaldehyde-ammonium salt complexes for the stabilization of blood cells” (priority 2002, published 2004)
